Drawing on US8946216B2, “Indazole derivatives useful as ERK inhibitors” (Merck Sharp & Dohme Corp., priority 2010, dated 2015), this text covers Kd and IC50 for 18 compounds.

By Kd is commonly meant the equilibrium constant for the complex coming apart. As a reminder, the IC50 is the concentration at which inhibition is half-maximal.

Assay [1] concerns the target ERK protein (Homo sapiens, UniProt P28482). Nature of the assay: TdF (Temperature Dependence Fluorescence, thermal shift) assay for ERK. It counts as binding. The conditions noted are these: read-out: TdF Kd; 3 μM ERK protein, 15, 50 or 100 μM compound, Sypro Orange; Kd calculated from ΔTm; uncertainty estimated ±50%. The gist of the method: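 Thermal shift with Sypro Orange: samples containing 3 μM in 2% final DMSO heated 30 to 90 °C at 1 °C/min, fluorescence at ex 490/em 560 nm. Kd derived from ΔTm versus protein alone by the Brandts–Lin model, with ΔCpL set to 0 and ΔHL to −7 kcal/mol; uncertainty ±50%.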

For assay [2], the target named is unphosphorylated Mouse ERK2 protein (inactive ERK2) (Mus musculus, UniProt P63085). Nature of the assay: Coupled ERK2 (cERK) assay, coupled MEK1/ERK2 IMAP. It counts as biochemical. To be noted: 30 min preincubation with inactive ERK2, then activation by human MEK1; 30 μM ATP; fluorescence polarization; read-out: cERK2 IC50. The gist of the method: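 Compound was preincubated with 0.4 ng unphosphorylated mouse ERK2 in Tris pH 7.2/MgCl2/DTT buffer (6.7% DMSO). ERK2 was then activated for 1 h by 2 ng active human MEK1 with 4 μM IMAP substrate peptide (100 nM fluorescein-labelled) and 30 μM ATP (final, 4% DMSO). Phosphorylation was read by IMAP bead fluorescence polarization after 30 min binding.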
A general note: Fluorescence polarisation rises when a labelled molecule tumbles more slowly, as on binding a larger partner.

In assay [3] the target is fully phosphorylated, active Mouse ERK2 protein (Mus musculus, UniProt P63085). Nature of the assay: Active ERK2 (aERK) assay, IMAP format. It counts as biochemical. To be noted: 30 min preincubation; 1 μM substrate peptide, 30 μM ATP; fluorescence polarization; read-out: aERK2 IC50. As to the method:
Active ERK2 (aERK) Assay:
Activated ERK2 activity was also determined in the IMAP assay format using the procedure outlined above. 1 μl of 25× compound was added to 14 μl of kinase buffer containing 0.25 ng fully phosphorylated, active Mouse ERK2 protein. Following a 30 minute incubation, the reactions were initiated by addition of 10 μl of kinase buffer containing 1 μM ERK2 IMAP substrate peptide (0.9 μM unlabeled IPTTPITTTYFFFK--CONH2 and 100 nM IPTTPITTTYFFFK(5-carboxyfluorescein)-CONH2) and 30 μM ATP. Reactions proceeded for 30 minutes before termination by addition of 60 μl IMAP detection beads in binding buffer. Plates were read as above after 30 minute binding equilibration. Active compounds were reconfirmed in an independent assay.

Chain of ERK protein (P28482 2-360): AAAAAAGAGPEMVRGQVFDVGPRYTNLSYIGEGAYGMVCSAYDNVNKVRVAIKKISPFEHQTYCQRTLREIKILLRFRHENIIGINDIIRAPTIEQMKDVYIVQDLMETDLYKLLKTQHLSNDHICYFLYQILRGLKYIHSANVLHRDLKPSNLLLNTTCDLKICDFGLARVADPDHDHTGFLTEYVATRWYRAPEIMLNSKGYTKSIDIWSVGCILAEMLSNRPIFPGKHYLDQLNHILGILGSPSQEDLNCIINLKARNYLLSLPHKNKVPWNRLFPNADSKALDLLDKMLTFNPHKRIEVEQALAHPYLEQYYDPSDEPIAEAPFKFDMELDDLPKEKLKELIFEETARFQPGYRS
Chain of fully phosphorylated, active Mouse ERK2 protein (P63085 whole entry): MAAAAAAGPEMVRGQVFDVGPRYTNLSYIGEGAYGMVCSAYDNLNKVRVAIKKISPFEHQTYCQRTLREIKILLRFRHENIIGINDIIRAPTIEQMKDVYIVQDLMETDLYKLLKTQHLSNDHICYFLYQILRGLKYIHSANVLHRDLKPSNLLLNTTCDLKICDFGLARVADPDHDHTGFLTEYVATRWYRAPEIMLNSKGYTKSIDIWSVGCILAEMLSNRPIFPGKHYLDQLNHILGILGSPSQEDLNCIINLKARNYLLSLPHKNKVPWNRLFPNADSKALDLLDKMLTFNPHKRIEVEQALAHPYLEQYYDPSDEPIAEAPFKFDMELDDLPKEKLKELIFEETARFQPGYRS
Chain of unphosphorylated Mouse ERK2 protein (inactive ERK2) (P63085 whole entry): as above

On to `Cc1nc(CN2CCOC(C(=O)Nc3ccc4[nH]nc(-c5ccncc5)c4c3)C2)cs1` (stereo not drawn) [Compound 18, 4-[(2-METHYL-4-THIAZOLYL)METHYL]-N-[3-(4-PYRIDINYL)-1H-INDAZOL-5-YL]-2-MORPHOLINECARBOXAMIDE], for which the Kd in assay [1] was 571 nM. Further, the values for the IC50 in assay [2] and in assay [3] were 1170 nM and 18100 nM, respectively.

Take `O=C(Nc1ccc2[nH]nc(-c3ccncc3)c2c1)[C@H]1CN(Cc2ccccc2F)CCS1` [Compound 61, 4-[(2-FLUOROPHENYL)METHYL]-N-[3-(4-PYRIDINYL)-1H-INDAZOL-5-YL]-2(R)-THIOMORPHOLINECARBOXAMIDE]: in assay [1], the Kd is 5 nM. Moreover, the IC50 was 19.9 nM in assay [2] and 8.1 nM in assay [3].

`O=C(Nc1ccc2[nH]nc(-c3ccncc3)c2c1)C1CN(Cc2c(F)cccc2F)CCO1` (stereo not drawn) [Compound 44, 4-[(2,6-DIFLUOROPHENYL)METHYL]-N-[3-(4-PYRIDINYL)-1H-INDAZOL-5-YL]-2-MORPHOLINECARBOXAMIDE]: the dissociation constant (Kd) in assay [1] was 165 nM. Besides, the IC50 in assay [2] was 109 nM; in assay [3] it was 69.2 nM.

For the compound `O=C(Nc1ccc2[nH]nc(-c3ccncc3)c2c1)C1CN(Cc2cc(Cl)cc(Cl)c2)CCO1` (stereo not drawn) [Compound 50, 4-[(3,5-DICHLOROPHENYL)METHYL]-N-[3-(4-PYRIDINYL)-1H-INDAZOL-5-YL]-2-MORPHOLINECARBOXAMIDE], the Kd in assay [1] was 500 nM. Further, the IC50 in assay [2] was found to be 8840 nM; in assay [3] it was 8680 nM.

Consider `COc1ccc(F)c(CN2CCOC(C(=O)Nc3ccc4[nH]nc(-c5ccncc5)c4c3)C2)c1` (stereo not drawn) [Compound 46, 4-[(2-FLUORO-5-METHOXYPHENYL)METHYL]-N-[3-(4-PYRIDINYL)-1H-INDAZOL-5-YL]-2-MORPHOLINECARBOXAMIDE], for which the Kd in assay [1] is 167 nM. For the same compound, the IC50 in assay [2] and in assay [3] was 148 nM each time.

With `CSC1(C(=O)Nc2ccc3[nH]nc(-c4ccncc4)c3c2)CCN(Cc2ccccc2F)C1` (stereo not drawn) [Compound 63, 1-[(2-FLUOROPHENYL)METHYL]-3-(METHYLTHIO)-N-[3-(4-PYRIDINYL)-1H-INDAZOL-5-YL]-3-PYRROLIDINECARBOXAMIDE], the Kd in assay [1] was 13.5 nM. Also, the IC50 in assay [2] was found to be 121 nM; in assay [3], 211 nM.

For `O=C(Nc1ccc2[nH]nc(-c3ccncc3)c2c1)C1CCN(Cc2ccccc2)C1` (stereo not drawn) [Compound 64, 1-(PHENYLMETHYL)-N-[3-(4-PYRIDINYL)-1H-INDAZOL-5-YL]-3-PYRROLIDINECARBOXAMIDE], the Kd in assay [1] is 35.6 nM. Moreover, the values for the IC50 in assay [2] and in assay [3] were 171 nM and 245 nM, respectively.

As for `O=C(Nc1ccc2[nH]nc(-c3ccncc3)c2c1)C1CNCC(c2ccccc2)C1` (stereo not drawn) [Compound 79, 5-PHENYL-N-[3-(4-PYRIDINYL)-1H-INDAZOL-5-YL]-3-PIPERIDINECARBOXAMIDE], in assay [1], the Kd is 8 nM. The IC50 amounted to 69.4 nM in assay [2] and 124 nM in assay [3].

As to `O=C(Nc1ccc2[nH]nc(-c3ccncc3)c2c1)C1CNCCS1` (stereo not drawn) [Compound 17, N-[3-(4-PYRIDINYL)-1H-INDAZOL-5-YL]-2-THIOMORPHOLINECARBOXAMIDE], in assay [1], the Kd was 5630 nM. For the same compound, the IC50 in assay [2] was determined as 109 nM; in assay [3] it was 124 nM.

As for `COc1ccccc1CN1CCOC(C(=O)Nc2ccc3[nH]nc(-c4ccncc4)c3c2)C1` (stereo not drawn) [Compound 35, 4-[(2-METHOXYPHENYL)METHYL]-N-[3-(4-PYRIDINYL)-1H-INDAZOL-5-YL]-2-MORPHOLINECARBOXAMIDE], the Kd in assay [1] is 79 nM. Besides, the figures for the IC50 in assay [2] and in assay [3] were 80.9 nM and 37.9 nM, respectively.

For `O=C(Nc1ccc2[nH]nc(-c3ccncc3)c2c1)C1CN(Cc2cccc(Cl)c2)CCO1` (stereo not drawn) [Compound 29, 4-[(3-CHLOROPHENYL)METHYL]-N-[3-(4-PYRIDINYL)-1H-INDAZOL-5-YL]-2-MORPHOLINECARBOXAMIDE], in assay [1], the Kd is 141 nM. Further, the IC50 in assay [2] amounted to 151 nM; in assay [3], 123 nM.

Turning to `O=C(Nc1ccc2[nH]nc(-c3ccncc3)c2c1)C1CN(Cc2ccc(F)cc2F)CCO1` (stereo not drawn) [Compound 45, 4-[(2,4-DIFLUOROPHENYL)METHYL]-N-[3-(4-PYRIDINYL)-1H-INDAZOL-5-YL]-2-MORPHOLINECARBOXAMIDE], the Kd in assay [1] is 80 nM. Moreover, the IC50 in assay [2] turned out to be 275 nM; in assay [3] it was 138 nM.

Regarding `N#Cc1ccccc1N1CCCC(C(=O)Nc2ccc3[nH]nc(-c4ccncc4)c3c2)C1` (stereo not drawn) [Compound 55, 1-(2-CYANOPHENYL)-N-[3-(4-PYRIDINYL)-1H-INDAZOL-5-YL]-3-PIPERIDINECARBOXAMIDE], in assay [1], the Kd is 23 nM. Also, the half-inhibitory concentration (IC50) in assay [2] turned out to be 91.5 nM; in assay [3], 82.3 nM.

With `O=C(Nc1ccc2[nH]nc(-c3ccncc3)c2c1)C1CN(C(=O)OCc2ccccc2)CCN1` (stereo not drawn) [Compound 58, PHENYLMETHYL 3-[[[3-(4-PYRIDINYL)-1H-INDAZOL-5-YL]AMINO]CARBONYL]-1-PIPERAZINECARBOXYLATE], the Kd in assay [1] is 602 nM. The concentration for half-maximal inhibition (IC50) in assay [2] came out at 960 nM; in assay [3], 2200 nM.

Regarding `Cc1nc(CN2CCSC(C(=O)Nc3ccc4[nH]nc(-c5ccncc5)c4c3)C2)cs1` (stereo not drawn) [Compound 11, 4-[(2-METHYL-4-THIAZOLYL)METHYL]-N-[3-(4-PYRIDINYL)-1H-INDAZOL-5-YL]-2-THIOMORPHOLINECARBOXAMIDE], in assay [1], the Kd is 616 nM. The IC50 in assay [2] stood at 840 nM; in assay [3], 475 nM.

For the compound `O=C(Nc1ccc2[nH]nc(-c3ccncc3)c2c1)C1CN(Cc2ccccc2Cl)CCS1` (stereo not drawn) [Compound 9, 4-[(2-CHLOROPHENYL)METHYL]-N-[3-(4-PYRIDINYL)-1H-INDAZOL-5-YL]-2-THIOMORPHOLINECARBOXAMIDE], the Kd in assay [1] is 20 nM. Also, the results for the IC50 in assay [2] and in assay [3] were 42.4 nM and 54.2 nM, respectively.

Consider `O=C(Nc1ccc2[nH]nc(-c3ccncc3)c2c1)[C@@H]1CN(Cc2ccccc2F)CCS1` [Compound 60, 4-[(2-FLUOROPHENYL)METHYL]-N-[3-(4-PYRIDINYL)-1H-INDAZOL-5-YL]-2(S)-THIOMORPHOLINECARBOXAMIDE], for which the Kd in assay [1] is 6 nM. The IC50 in assay [2] turned out to be 72.3 nM; in assay [3], 175 nM.

`O=C(Nc1ccc2[nH]nc(-c3ccncc3)c2c1)C1CN(Cc2c(F)cccc2Cl)CCO1` (stereo not drawn) [Compound 37, 4-[(2-CHLORO-6-FLUOROPHENYL)METHYL]-N-[3-(4-PYRIDINYL)-1H-INDAZOL-5-YL]-2-MORPHOLINECARBOXAMIDE]: in assay [1], the Kd was 27 nM. Moreover, the IC50 turned out to be 173 nM in assay [2] and 111 nM in assay [3].
